Data reported in patent publication US8044186B2, “Heterologous production of capreomycin and generation of new capreomycin derivatives through metabolic engineering” (priority 2007, dated 2011).
Converted amounts (≈) assume the structure as drawn.

Legend:
[1] = tested on: St. lividans 1326/pSE34 (cmnU−); experiment: MIC in St. lividans 1326 with empty vector; format: cell-based, Streptomyces lividans
Description: (§1) Analysis of cmnU in St. lividans 1326. The XbaI/HindIII fragment of pET22b-cmnU was cloned into the corresponding sites of pSE34 (29) to generate pSE34-cmnU. This vector construct results in the constitutive expression of cmnU when pSE34-cmnU is introduced into St. lividans 1326. pSE34-cmnU and pSE34 were introduced into St. lividans 1326 by transformation, and successful transformants were selected by using an overlay of thiostrepton (8 μg/ml). Transformants were streaked for isolation on ISP2 medium containing thiostrepton. To test for CMN or kanamycin resistance, 10^5 spores of St. lividans 1326 containing either pSE34-cmnU or pSE34 were plated onto ISP2 plates supplemented with CMN (25-1600 μg/ml) or kanamycin (3-1600 μg/ml). The plates were incubated at 30° C. for 2 days, and the minimum inhibitory concentration was defined as the lowest antibiotic concentration at which no growth was observed.

[2] = tested on: E. coli DH5α/pBAD33-cmnU/pLJ102 (cmnU+, tlyA−); experiment: MIC in E. coli expressing cmnU; format: cell-based, Escherichia coli
Source text: (§2) Analysis of cmnU in E. coli. The gene cmnU was PCR amplified from pCMN-P4C8RF using the following primers: CmnU-NdeI (5′-[…]-3′) (SEQ ID NO:37) and CmnU-HindIII (5′-[…]-3′) (SEQ ID NO:38). The amplicon was cloned into pCR-BluntII-TOPO according to manufacturer's instructions (Invitrogen), resulting in pCR-BluntII-TOPO-cmnU. The NdeI/HindIII fragment of pCR-Blunt-TOPO-cmnU containing cmnU was subcloned into the corresponding restriction sites of pET22b (Novagen), resulting in pET22b-cmnU. The XbaI/HindIII fragment of pET22b-cmnU containing the optimized ribosome-binding site and cmnU was subcloned into the corresponding sites of pBAD33 (14) resulting in pBAD33-cmnU. This construct results in the expression of cmnU under the control of the arabinose promoter of pBAD33. pBAD33 and pBAD33-cmnU were transformed into DH5α strains containing either pLJ102 (empty vector) or pSJ101 (tlyA inserted into pLJ102 and expression controlled by IPTG induction) (18). Each of these strains was grown in LB medium containing chloramphenicol (15 μg/ml) and ampicillin (100 μg/ml) for plasmid maintenance, isopropyl-beta-D-thiogalactopyranoside (40 μg/ml) and arabinose (2% w/v) for induced expression of tlyA and cmnU, respectively, and varying concentrations of CMN (12.5-100 μg/ml) or kanamycin (6-96 μg/ml). […]

[3] = tested on: St. lividans 1326/pSE34-cmnU (cmnU+); experiment: MIC in St. lividans 1326 expressing cmnU; format: cell-based, Streptomyces lividans
Description: as §1

[4] = tested on: E. coli DH5α/pBAD33/pSJ101 (cmnU−, tlyA+); experiment: MIC in E. coli expressing tlyA; format: cell-based, Escherichia coli
Source text: as §2

[5] = tested on: E. coli DH5α/pBAD33-cmnU/pSJ101 (cmnU+, tlyA+); experiment: MIC in E. coli expressing cmnU and tlyA; format: cell-based, Escherichia coli
Source text: as §2

[6] = tested on: E. coli DH5α/pBAD33/pLJ102 (cmnU−, tlyA−); experiment: MIC in E. coli, cmnU not expressed, tlyA not expressed; format: cell-based, Escherichia coli
Source text: as §2

[7] = Streptomyces lividans, 48 h, read-out: minimum inhibitory concentration (MIC)
[8] = Escherichia coli, 16 h, read-out: minimum inhibitory concentration (MIC)

| Compound | minimum inhibitory concentration (MIC) ([1]; St. lividans 1326/pSE34 (cmnU−), lowest concentration with no growth on ISP2 plates after 2 days at 30° C., three separate experiments) | minimum inhibitory concentration (MIC) ([2]; E. coli DH5α/pBAD33-cmnU/pLJ102 (cmnU+, tlyA−), lowest concentration with OD650 < 0.1 after 16 hrs at 37° C. in LB medium, three separate experiments) | minimum inhibitory concentration (MIC) ([3]; St. lividans 1326/pSE34-cmnU (cmnU+), lowest concentration with no growth on ISP2 plates after 2 days at 30° C., three separate experiments) | minimum inhibitory concentration (MIC) ([4]; E. coli DH5α/pBAD33/pSJ101 (cmnU−, tlyA+), lowest concentration with OD650 < 0.1 after 16 hrs at 37° C. in LB medium, three separate experiments) | minimum inhibitory concentration (MIC) ([5]; E. coli DH5α/pBAD33-cmnU/pSJ101 (cmnU+, tlyA+), lowest concentration with OD650 < 0.1 after 16 hrs at 37° C. in LB medium, three separate experiments) | minimum inhibitory concentration (MIC) ([6]; E. coli DH5α/pBAD33/pLJ102 (cmnU−, tlyA−), lowest concentration with OD650 < 0.1 after 16 hrs at 37° C. in LB medium, three separate experiments) | MIC [1, 7] | MIC [2, 8] | MIC [3, 7] | MIC [4, 8] | MIC [5, 8] | MIC [6, 8] |
| --- | --- | --- | --- | --- | --- | --- | --- | --- | --- | --- | --- | --- |
| capreomycin [CMN] | 200 µg/mL | 100 µg/mL | >1600 µg/mL | 25 µg/mL | 50 µg/mL | 50 µg/mL |  |  |  |  |  |  |
| NC[C@H]1O[C@H](O[C@H]2[C@H](O)[C@@H](O[C@H]3O[C@H](CO)[C@@H](O)[C@H](N)[C@H]3O)[C@H](N)C[C@@H]2N)[C@H](O)[C@@H](O)[C@@H]1O [Kanamycin, kanamycin] |  |  |  |  |  |  | 6 µg/mL (≈ 12.4 µM) | 96 µg/mL (≈ 198 µM) | > 1600 µg/mL | 12 µg/mL (≈ 24.8 µM) | 24 µg/mL (≈ 49.5 µM) | 12 µg/mL (≈ 24.8 µM) |
